Measurements from patent US10154996B2, “Fungicidal agent” (priority 2014, dated 2018).
“And” between values parts separate entries of the source, which are not always exact repeats. Identical values can stand only once.

What was measured:
[1] = tested on: Candida fungi; experiment: Treatment of vulvovaginal candidiasis in patients; type: in vivo; conditions: douchings morning and evening, 7 days
Procedure: Treatment of Vulvovaginal Candidiasis. In the experiment, the patients, who suffered vulvovaginal candidiasis caused by Candida fungi, were treated using the following aqueous solutions: 1) 0.1% solution of the presented drug (3 persons), 2) 0.002% solution of the prototype drug (3 people). The treatment in the form of dualfold (in the morning and in the evening) douchings was performed for 7 days. The treatment efficacy was assessed by the clinical presentation and the results mycological examination (inoculations on Saburo medium).

[2] = tested on: Pityrosporum orbiculare-Malassezia furfur; experiment: Treatment of scaly skin disease (Tinea versicolor, Pityriasis versicolor) in patients; type: in vivo; conditions: cotton swab 2 times a day, 7 days
Procedure: Treatment of a Fungal Disease of the Skin—Scaly Skin Disease (Tinea Versicolor, Pityriasis versicolor). The disease is caused by a fungus called Pityrosporum orbiculare-Malassezia furfur (mycelial form). The following was prepared for the study: A 0.1% oil (olive oil) solution of the presented preparation and a 0.002% aqueous solution of the prototype substance. As a reference olive oil was used. The study included three groups of patients. Each group included 2 patients with this pathology. Treatment duration was 7 days. The drug was applied with a cotton swab 2 times a day—in the morning and in the evening.

[3] = Solubility in water; type: physicochemical; conditions: for solubility in water: maximum concentration in water
Description: (§1) However, this compound is very poorly soluble in aqueous media and in fats. The maximum value of solubility of the known drug in water is 0.002%, and for fats it is no more than 0.001% (octanol, which is a common model of lipids). […] Solutions with such concentration of the active substance are not sufficiently effective. At the same time the task of improvement of efficiency of use of a fungicidal agent in the form of solutions for use in human and veterinary medicine in the form of injections and inhalations and for treatment of a variety of materials and agricultural products is extremely urgent.

[4] = tested on: fungi of the Microsporum genus; experiment: Treatment of ringworm in cats; type: in vivo
Description: The preparation was used in treatment of ringworm in cats (two animals) caused by fungi of the Microsporum genus and characterized by appearance of small round bald patches on the face and ears of the animal. The preparation in the form of a 0.1% aqueous solution was applied onto the affected area three times a day for 6 days.

[5] = Solubility in fats / oil solutions; type: physicochemical
Description: as §1

[6] = tested on: Aspergillus niger; experiment: Aspergillus pneumonia in mice, lung colonization after inhalation treatment; type: in vivo, white scrub mice
Procedure: The tests were conducted on white scrub mice (female, 6-8 weeks) received from “Rappolovo” breeding nursery (Leningrad reg.), which were kept under supervision for two weeks prior to the experiments on a standard diet in regulated vivarium conditions. Selection of the animals for the experiment group was conducted by the random selection method. For propagation of aspergillus pneumonia, the white scrub mice received a single intraperitoneal injection of a cyclophosphamide solution (150 mg/kg). After 3 days, the mice received a single intraperitoneal injection of a hydrocortisone solution (250 mg/kg). Twenty-four hours after administration of hydrocortisone the mice were intranasally infected with a suspension of Aspergillus niger (approximately 10^7 cells/ml) under ether narcosis. On day 5 after infection 5 animals from each group were taken to study lung colonization (euthanasia in the rodents was performed by overdose of ether). Lung tissues were used to prepare homogenates, in which the titer of Aspergillus fungi was determined. Observation over the remaining mice was carried out for 14 days after infection to record their mortality. The following groups of animals infected with Aspergillus niger were formed in the experiment. 1. Control groups: K1, K2, K3; the animals were exposed to an aerosol of isotonic sodium chloride solution. 2. Groups E1, E2, E3; the animals were administered a 0.1% aqueous solution of the presented preparation in the form of inhalations. 3. Groups P1, P2; the animals were administered an aqueous solution of the prototype fungicidal agent in the form of inhalations in concentrations of 0.002% and 0.001% respectively. The animals were placed into an aerosol chamber (12 liters) for 30 minutes, during which period 500 mL of air pass through their lungs. “OMRON U1” (Japan) ultrasonic nebulizer was used was used as an aerosol generator. To maintain a constant aerosol concentration in the chamber, a pneumatic vortex generator was used in the pulsed spraying mode ensuring a stable aerosol with particle size of 3 microns. The animals were placed in immobilization containers and exposed to the obtained aerosol for 30 minutes 1 time per day for 3 days starting from day 1 after the infection. Samples of homogenized lung tissue were used to prepare a number of successive dilutions followed by sowing on Saburo medium.

[7] = tested on: Leveillula taurica; experiment: Treatment of powdery mildew on tuberous begonias; type: in vivo, Begonia tuberosa hybridum; conditions: spray of 0.1% aqueous solution once a day for 7 days
Procedure: The study was conducted on tuberous begonias (Begonia tuberosa hybridum), infected with powdery mildew. Powdery mildew affects many plants, including trees and shrubs. Powdery mildew affects chrysanthemums, begonias, roses; at that a white, sometimes darkening, plaque appears green parts of the plant. The disease is transmitted by airborne spores. The tested plants were infected with spores of a fungus (Leveillula taurica) when exposed up to appearance of a white plaque on the leaves. Three leaves on each plant were infected. After appearance of the plaque the plants in control group (three plants) were isolated from the three plants treated with a spray of a 0.1% aqueous solution of the presented preparation. The treatment was performed once a day for 7 days. After the treatment was complete, observation over the plants was continued for another three weeks.

[8] = tested on: Aspergillus niger and Penicillium notatum; experiment: Protection of construction wood against fungal attacks; conditions: 5 days at 30° C.; for growth of test organisms on the boards: humid environment
Procedure: To test the preparation boards by the dimensions of 20×40×2 cm were used. The boards were divided into three groups. Group 1: the boards were impregnated with a 0.3% aqueous solution of the presented formulation. The impregnation was carried out by twofold application of the solution by means of a diffuser with an intermediate drying. Group 2: the boards were impregnated with a 0.02% aqueous solution of the prototype preparation. The impregnation was carried out by twofold application of the solution by means of a diffuser with an intermediate drying. Group 3 (control): the boards were impregnated with distilled water. The impregnation was carried out by twofold application of water by means of a diffuser with an intermediate drying. The boards dried after treatment were soaked in water for two hours, after which they were coated with Aspergillus niger and Penicillium notatum fungi cultures at opposite ends of one side. The boards were placed in thermostats for 5 days at the temperature of 30° C. in a humid environment. After incubation, the boards were visually inspected and inoculations were made from their surface onto a nutrient medium (Sabouraud).

[9] = 0.1% aqueous solution on affected area three times a day for 6 days
[10] = boards impregnated with 0.3% aqueous solution
[11] = lung homogenate day 5, 0.001% aqueous solution, inhalation, group P2
[12] = lung homogenate day 5, 0.002% aqueous solution, inhalation, group P1
[13] = boards impregnated with 0.02% aqueous solution

In the case of `N#CSc1cc(C=Nc2c[nH]c(=O)nc2O)c(O)c(SC#N)c1` [presented preparation], the Complete cure ([1]; 0.1% aqueous solution) is reported as “Reached”, the “Mycological cure (reduction in the number of fungi inoculated on a solid medium)” value ([1]; 0.1% aqueous solution) is reported as “A tenfold reduction in the number” and the Complete cure ([2]; 0.1% oil (olive oil) solution) is reported as “Reached”. The solubility in water [3] was 0.3-0.4%, the “increase in solubility versus prototype” value ([3]; water and oil solutions) was “more than a hundred-fold” and the inflammatory manifestations [4, 9] was “disappearance of inflammatory manifestations was reported”. For the same molecule, the “size of affected areas” value [4, 9] was “the affected areas ceased to increase”, the “growth from inoculations of swabs from the affected area after treatment” value ([4]; 0.1% aqueous solution three times a day for 6 days, nutrient media) was “did not lead to growth on nutrient media” and the “solubility for oil solutions” value ([5]; oil solutions) was 0.25-0.3%. For the same molecule, the “Number of colonies (in different dilutions) 10^−2” value ([6]; lung homogenate day 5, Saburo medium, 0.1% aqueous solution, inhalation 30 min once daily for 3 days, groups E1-E3) was 2 and 4, the “growth of fungi after flushing off the leaf and inoculation on a nutrient medium” value [7] was “no growth of the fungi was observed” and the “increase or spread of the fungus on the plant” value ([7]; observation three more weeks) was “no increase or spread of the fungus to other parts of the plant occur”. The “growth from control inoculations on nutrient medium (Sabouraud)” value [8, 10] was “did not lead to a growth on the nutrient medium” and the “growth of test organisms on the boards” value [8, 10] was “No growth of the test organisms was registered”.

In the case of “2.4-dioxo-5-(2-hydroxy-3.5-dichlorobenzylidene)amino-1.3-pyrimidine [Prototype, reference compound]”, the Complete cure ([1]; 0.002% aqueous solution) is reported as “Not reached”, the “Mycological cure (reduction in the number of fungi inoculated on a solid medium)” value ([1]; 0.002% aqueous solution) is reported as 1.7-fold reduction in the number of and the Complete cure ([2]; 0.002% aqueous solution) is reported as “Absent”. The solubility in water [3] was 0.002%, the solubility in fats ([5]; octanol as common model of lipids) was “no more than 0.001%” and the “Number of colonies (in different dilutions) 10^−2” value [6, 11] was 37. For the same molecule, the “Number of colonies (in different dilutions) 10^−4” value [6, 11] was 2, the “Number of colonies (in different dilutions) 10^−2” value [6, 12] was 26 and the “Number of colonies (in different dilutions) 10^−4” value [6, 12] was 1. For the same molecule, the “growth from inoculations on nutrient medium (Sabouraud)” value [8, 13] was “later spread in the nutrient medium” and the “growth of test organisms on the boards” value [8, 13] was “a growth of the inoculated test bacteria can be detected”.
